ChEMBL document CHEMBL1157516, “Discovery of a novel, potent and orally active series of gamma-lactams as selective NK1 antagonists” (Bioorg Med Chem Lett, 2008)

How the values were obtained:
Meriones unguiculatus [1] = assay: Inhibition of GR-73632-induced foot tapping in Mongolian gerbil assessed as decrease in duration of foot tapping at 1 mg/kg, po after 2 hrs; assay type: functional
Meriones unguiculatus [2] = assay: Inhibition of GR-73632-induced foot tapping in Mongolian gerbil assessed as decrease in duration of foot tapping at 1 mg/kg, po after 4 hrs; assay type: functional
Meriones unguiculatus [3] = assay: Inhibition of GR-73632-induced foot tapping in Mongolian gerbil assessed as decrease in duration of foot tapping at 1 mg/kg, po after 6 hrs; assay type: functional
Substance-P receptor = Substance-P receptor (Homo sapiens, UniProt P25103); assay: Displacement of [3H]Sar-Met substance P from human recombinant NK1 receptor expressed in CHO cells; assay type: cell-based
Sequence of Substance-P receptor (P25103 whole entry): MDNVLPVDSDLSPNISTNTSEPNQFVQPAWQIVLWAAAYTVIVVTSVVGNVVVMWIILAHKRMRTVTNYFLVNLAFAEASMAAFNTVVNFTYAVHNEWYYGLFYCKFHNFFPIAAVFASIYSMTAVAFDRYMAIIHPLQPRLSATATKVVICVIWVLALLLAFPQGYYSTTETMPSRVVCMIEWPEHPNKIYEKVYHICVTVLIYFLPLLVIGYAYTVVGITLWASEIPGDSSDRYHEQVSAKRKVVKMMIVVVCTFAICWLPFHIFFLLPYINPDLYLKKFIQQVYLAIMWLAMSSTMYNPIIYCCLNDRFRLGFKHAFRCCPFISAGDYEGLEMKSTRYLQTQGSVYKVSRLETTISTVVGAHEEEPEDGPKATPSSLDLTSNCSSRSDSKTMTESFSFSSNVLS

[4] = biological target: T1, Substance-K receptor (Homo sapiens) (UniProt P21452); assay: Displacement of [3H]Neurokinin A from human recombinant NK2 receptor expressed in CHO cells at 3 uM; assay type: cell-based
T1 sequence (whole entry): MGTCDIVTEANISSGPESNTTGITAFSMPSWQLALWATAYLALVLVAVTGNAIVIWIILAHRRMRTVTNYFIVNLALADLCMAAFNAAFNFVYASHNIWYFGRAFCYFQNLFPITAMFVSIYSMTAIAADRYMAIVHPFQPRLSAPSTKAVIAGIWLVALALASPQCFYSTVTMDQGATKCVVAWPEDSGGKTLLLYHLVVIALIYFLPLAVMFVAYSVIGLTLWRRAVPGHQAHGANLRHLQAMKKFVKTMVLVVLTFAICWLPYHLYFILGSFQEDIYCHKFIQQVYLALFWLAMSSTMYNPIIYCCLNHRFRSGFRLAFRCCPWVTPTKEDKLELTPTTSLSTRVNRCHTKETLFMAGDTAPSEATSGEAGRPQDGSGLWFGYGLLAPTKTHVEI

[5] = biological target: T2, Neuromedin-K receptor (Homo sapiens) (UniProt P29371); assay: Displacement of [125I]neurokinin B from human recombinant NK3 receptor expressed in CHO cells at 10 uM; assay type: cell-based
T2 sequence (whole entry): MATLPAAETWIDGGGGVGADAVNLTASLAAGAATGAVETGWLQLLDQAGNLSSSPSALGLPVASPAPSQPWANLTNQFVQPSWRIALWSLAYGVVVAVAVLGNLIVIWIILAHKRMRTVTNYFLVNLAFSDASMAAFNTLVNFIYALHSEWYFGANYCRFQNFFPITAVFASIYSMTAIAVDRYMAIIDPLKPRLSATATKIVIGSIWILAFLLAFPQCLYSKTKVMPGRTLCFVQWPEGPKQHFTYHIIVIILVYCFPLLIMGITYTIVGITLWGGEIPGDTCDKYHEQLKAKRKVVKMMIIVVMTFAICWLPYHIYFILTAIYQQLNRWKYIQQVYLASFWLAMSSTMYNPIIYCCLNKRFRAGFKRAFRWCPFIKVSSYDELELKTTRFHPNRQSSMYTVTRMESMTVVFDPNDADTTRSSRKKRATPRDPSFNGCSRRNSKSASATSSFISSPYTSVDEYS

Neuromedin-K receptor = biological target: T3, Neuromedin-K receptor (Homo sapiens, UniProt P29371); assay: Displacement of [125I]neurokinin B from human recombinant NK3 receptor expressed in CHO cells; assay type: cell-based
T3 sequence (P29371 whole entry): T2 sequence (whole entry)

Ki (Substance-P receptor) [nM]	inhibition [4] [%]	inhibition [5] [%]	Ki (Neuromedin-K receptor) [nM]	SMILES	inhibition in vivo at 1 mg/kg (Meriones unguiculatus [1]) [%]	inhibition in vivo at 1 mg/kg (Meriones unguiculatus [2]) [%]	inhibition in vivo at 1 mg/kg (Meriones unguiculatus [3]) [%]
0.4	–	–	–	C[C@@H](OC[C@@]1(c2ccccc2)C[C@H](N2CCCC2)C(=O)N1)c1cc(C(F)(F)F)cc(C(F)(F)F)c1	78	60	45
0.5	–	–	–	C[C@@H](OC[C@@]1(c2ccccc2)C[C@@H](N2CCCC2=O)C(=O)N1)c1cc(C(F)(F)F)cc(C(F)(F)F)c1	49	46	39
0.7	–	–	–	C[C@H]1C[C@@](CO[C@H](C)c2cc(C(F)(F)F)cc(C(F)(F)F)c2)(c2ccccc2)NC1=O	77	85	44
2	–	–	–	C[C@@H]1C[C@@](CO[C@H](C)c2cc(C(F)(F)F)cc(C(F)(F)F)c2)(c2ccccc2)NC1=O	11	2	36
–	–	–	–	C[C@@H](OC[C@@]1(c2ccccc2)CNC(=O)N1)c1cc(C(F)(F)F)cc(C(F)(F)F)c1	35	57	48
0.5	–	–	–	C[C@@H](OC[C@@]1(c2ccccc2)CC(O)C(=O)N1)c1cc(C(F)(F)F)cc(C(F)(F)F)c1 (stereo partly drawn)	27	35	1
0.3	1.4	43	–	CC(=O)N[C@H]1C[C@@](CO[C@H](C)c2cc(C(F)(F)F)cc(C(F)(F)F)c2)(c2ccccc2)NC1=O	94	94	91
2.6	–	–	–	C[C@@H](OC[C@@]1(c2ccccc2)C[C@@H](NS(C)(=O)=O)C(=O)N1)c1cc(C(F)(F)F)cc(C(F)(F)F)c1	0	15	0
0.3	–	–	–	CCC(=O)N[C@H]1C[C@@](CO[C@H](C)c2cc(C(F)(F)F)cc(C(F)(F)F)c2)(c2ccccc2)NC1=O	84	97	90
0.6	0.1	–	3810	C[C@@H](OC[C@@]1(c2ccccc2)CCC(=O)N1)c1cc(C(F)(F)F)cc(C(F)(F)F)c1	92	78	47
0.2	–	–	–	C[C@@H](OC[C@@]1(c2ccccc2)C[C@@H](N2CCCCC2=O)C(=O)N1)c1cc(C(F)(F)F)cc(C(F)(F)F)c1	20	26	56
0.4	–	–	–	C[C@@H](OC[C@@]1(c2ccccc2)CC(N)C(=O)N1)c1cc(C(F)(F)F)cc(C(F)(F)F)c1 (stereo partly drawn)	5	13	11
0.2	–	–	–	C[C@@H](OC[C@@]1(c2ccccc2)C[C@H](N2CCCCC2=O)C(=O)N1)c1cc(C(F)(F)F)cc(C(F)(F)F)c1	74	37	63
0.2	28	–	1250	C[C@@H](OC[C@@]1(c2ccccc2)C[C@H](N2CCCC2=O)C(=O)N1)c1cc(C(F)(F)F)cc(C(F)(F)F)c1	100	100	98
0.9	–	–	–	CC(=O)N[C@@H]1C[C@@](CO[C@H](C)c2cc(C(F)(F)F)cc(C(F)(F)F)c2)(c2ccccc2)NC1=O	80	97	71
0.3	–	–	–	CCC(=O)N[C@@H]1C[C@@](CO[C@H](C)c2cc(C(F)(F)F)cc(C(F)(F)F)c2)(c2ccccc2)NC1=O	83	16	19
0.6	–	–	–	C[C@@H](OC[C@@]1(c2ccccc2)C[C@H](NS(C)(=O)=O)C(=O)N1)c1cc(C(F)(F)F)cc(C(F)(F)F)c1	10	58	43
